Take `O=C(Cc1ccccc1)Nc1ccccc1C(=O)O`: the melting point (in general, the temperature of the solid-liquid transition) lay within 192 to 194 °C. The result for `Fc1ccc(CBr)c(Br)c1` reads 51 to 53 °C; that for `Cc1ccc(C(=O)Nc2ccccc2N)cc1`, 154 to 156 °C. Under `O=[N+]([O-])c1ccc(OCCO)cc1C(F)(F)F` stands 62 to 64 °C; under `Cc1ccn2c(=O)c(C(=O)O)cnc2c1`, 241 to 243 °C. The result for `CCC1CCc2[nH]c3ccc(C)cc3c2C1` (stereo unspecified) reads 59 to 61 °C; that for `O=C(O)C1CCCOC1c1ccccc1` (stereo unspecified), 56 to 58 °C; that for `N#Cc1ccc(F)c(Cn2ccnc2)c1`, 91 to 93 °C. For `C[C@H](N)C(N)=O`, the melting point lay in the range of 67 to 69 °C. Under `Cc1sc(N)c(C#N)c1C` stands 134 to 136 °C; under `CC(C)Cn1ncnc1CO`, 92 to 94 °C; under `Clc1ccnc2cc(Br)cnc12`, 182 to 184 °C. The result for `CCN(CC)C(=O)c1ccc(N)cc1Cl` reads 154 to 156 °C; that for `OC1CC(c2ccccc2F)C1` (stereo unspecified), 46 to 48 °C; that for `Cc1ncncc1C(=O)O`, 174 to 176 °C. `O=C(O)c1cc(Br)sc1Br`: the melting point is 179 to 181 °C.

The compound `Nc1cccc(CS(=O)(=O)Cc2ccccc2)c1` displayed a melting point of 120 to 122 °C. Compound `NC(=O)NC1CCCc2ccccc21` (stereo unspecified) gave a melting point of 204 to 206 °C.

Consider `CC(C(=O)O)c1ccccc1F` (stereo unspecified), for which the melting point fell in the range of 47 to 49 °C. Take `C#Cc1ccc(C(=O)O)cn1`: the melting point lay within 129 to 131 °C. In the case of `Cn1nc(-c2ccncc2)cc1O`, the melting point lay in the range of 209 to 211 °C. Regarding `CCc1ccc(C(=O)O)o1`, the melting point lay in the range of 89 to 91 °C. The result for `CCCCc1ccc(Nc2nnc(S)s2)cc1` reads 124 to 126 °C. Compound `Cc1cc(C)c2ncc(C#N)c(Cl)c2c1` returned a melting point of 141 to 143 °C. The result for `O=C(O)CCCc1ccccc1Br` reads 87 to 89 °C; that for `CC(=O)NC(CC(=O)O)c1ccccc1` (stereo unspecified), 165 to 167 °C. The result for `O=C(O)CCOc1ccc(Br)cc1F` reads 91 to 93 °C; that for `O=C(NCCO)c1cccc(S(=O)(=O)N2CCCCC2)c1`, 65 to 68 °C; that for `CCS(=O)(=O)c1ccc(F)c(C(=O)O)c1`, 129 to 131 °C. In turn, `Cc1cc(C#N)ccc1-n1cncn1` came in with a melting point of 139 to 141 °C. `Cn1cnc(-c2ccc(N)cc2)n1` displayed a melting point of 138 to 140 °C. Under `O=C(O)c1cc(I)cc(C(F)(F)F)c1` stands 182 to 184 °C; under `N#Cc1cccc(C(=O)N2CCCCC2)c1`, 61 to 63 °C. Under `O=C(O)c1cc(-c2ccccc2)nc2c1cnn2Cc1ccco1` stands 242 to 244 °C; under `Nc1ccc(Sc2cccs2)cn1`, 77 to 79 °C; under `Cc1ccc(C(=O)O)cc1S(C)(=O)=O`, 209 to 211 °C.

Take `Cc1ccc(Oc2ccc(C#N)cc2)cc1`: the melting point lay in the range of 69 to 71 °C. In turn, `O=Cc1cc(-n2ccnc2)cs1` yielded a melting point of 123 to 125 °C.

In turn, `O=C(O)CSC1=NS(=O)(=O)c2ccccc21` had a melting point of 213 to 215 °C. Turning to `O=C(O)C(Sc1ccc(F)cc1F)c1ccccc1` (stereo unspecified), the melting point lay in the range of 109 to 111 °C. Take `O=C(O)c1cc(C2CC2)[nH]n1`: the melting point lay within 193 to 195 °C. Compound `O=C(O)C(=Cc1cccs1)n1nnnc1-c1ccccc1` returned a melting point of 204 to 206 °C.

For `COc1ccc(C2C(C(=O)O)CCC(=O)N2c2ccc(OC)cc2)cc1` (stereo unspecified), the melting point fell in the range of 178 to 180 °C.

Compound `CC(=O)c1ccc(S(=O)(=O)N2CCCCC2)cc1` returned a melting point of 139 to 142 °C.

With `Cc1nn(-c2ccccc2)c(C)c1C(O)C(F)(F)F` (stereo unspecified), the melting point lay within 162 to 164 °C. The result for `O=C(O)c1sccc1SC(F)F` reads 117 to 119 °C. Regarding `Cc1noc2nc(-c3cc(F)ccc3F)cc(C(=O)O)c12`, the melting point was in the range of 237 to 239 °C. The result for `COc1ccc(-c2cc(C(=O)O)[nH]n2)cc1OC` reads 225 to 227 °C. `CC(C)(C)OC(=O)N1CCC2(CC1)CC2C(=O)NN` (stereo unspecified) came in with a melting point of 132 to 134 °C. The result for `COC(=O)COc1ccc(Br)cc1` reads 49 to 51 °C; that for `CC(=O)c1ccc(NS(=O)(=O)c2ccc(Cl)cc2)cc1`, 132 to 134 °C; that for `Nc1ccccc1C(=O)Nc1ccc2c(c1)OCCO2`, 117 to 119 °C. With `Cc1ccc(CC(=O)O)cc1O`, the melting point is 105 to 107 °C. The result for `O=[N+]([O-])c1c[nH]nc1-c1ccncc1` reads 216 to 218 °C.

`CC(C)(C)OC(=O)N1CCC(NCC(F)(F)F)CC1` registered a melting point of 51 to 53 °C. The result for `O=C(Nc1ccccn1)c1ccc(Br)cc1` reads 134 to 136 °C; that for `ClCc1sc2ccccc2c1Cl`, 77 to 79 °C. The result for `COC(=O)Nc1ccc(N)cc1` reads 89 to 91 °C; that for `O=C(O)c1cnc(NC2CC2)s1`, 217 to 219 °C. Under `O=c1[nH]c(-c2ccccn2)nc2c1CCC2` stands 178 to 180 °C; under `CSc1ncc[nH]1`, 129 to 131 °C; under `Cc1cc(=O)[nH]c(-c2ncccn2)n1`, 172 to 174 °C. Compound `O=C(O)c1nnn(-c2ccc(Br)cc2)c1C(F)(F)F` had a melting point of 169 to 171 °C. Under `Cc1c(C(=O)O)sc2nccn12` stands 241 to 243 °C.

Regarding `Cc1ccc(NC(=O)NN)c(Cl)c1`, the melting point was in the range of 132 to 134 °C. The result for `O=C(O)CNc1cccc(Cl)c1` reads 174 to 176 °C.

The compound `Cc1cc(C(=O)CCl)c(C)n1-c1c(C)n(C)n(-c2ccccc2)c1=O` returned a melting point of 160 to 162 °C. For `O=C(O)CCCCOc1ccc(Oc2ccccc2)cc1`, the melting point lay within 53 to 55 °C. `N#CCCSc1ccccc1N` registered a melting point of 45 to 47 °C. Under `CC(=O)c1ccc(OC(C)C(=O)O)cc1` (stereo unspecified) stands 158 to 161 °C. `O=[N+]([O-])c1cc(C(F)(F)F)ccc1I` showed a melting point of 34 to 36 °C.

`CC(C)c1nn(C)c2sc(C(=O)O)cc12` had a melting point of 209 to 211 °C. The result for `CCOC(=O)c1c(NC(=O)C(C)Cl)sc2c1CCC(C)C2` (stereo unspecified) reads 90 to 93 °C.

`COc1ccc(NC(=O)CSCC(=O)O)cc1` showed a melting point of 112 to 114 °C. `Nc1ccccc1Oc1ccncc1` gave a melting point of 98 to 100 °C. Compound `Cc1c(C(=O)O)cnn1C(C)C` gave a melting point of 142 to 144 °C. Compound `CC(Cl)C(=O)Nc1ccccc1C(=O)NCc1ccco1` (stereo unspecified) had a melting point of 102 to 104 °C. The compound `COC(=O)Cn1cnc2cc(F)ccc2c1=O` gave a melting point of 144 to 146 °C. `O=C(O)CCc1cccc([N+](=O)[O-])c1` showed a melting point of 111 to 113 °C. Under `O=C(O)C1CCN(c2ccc(Cl)cn2)CC1` stands 152 to 154 °C.

In the case of `O=C(O)c1cccc(C(F)F)c1`, the melting point lay within 125 to 127 °C. The result for `O=C(O)c1ccc2c(c1)C(=O)N(CCc1ccccc1)C2=O` reads 215 to 217 °C. Under `O=C(O)c1ccccc1Cc1nc2ccccc2s1` stands 182 to 184 °C; under `CN(C(=O)OC(C)(C)C)c1ccc(O)cc1`, 133 to 135 °C. Under `Nn1cn[nH]c1=O` stands 169 to 171 °C; under `O=C(O)c1cnc2ccc(Br)cc2c1O`, 274 to 276 °C. Compound `Cc1ccc(C(N)=O)c(O)c1` showed a melting point of 181 to 183 °C. The result for `COc1c(C)cnc(Cn2ccc(N)n2)c1C` reads 59 to 61 °C; that for `O=C(Nc1nccs1)C1CCCNC1` (stereo unspecified), 178 to 180 °C; that for `COc1ccccc1-c1nc(C(=O)O)cs1`, 184 to 186 °C. `COc1ccc(-n2c(CCl)nc3ccccc32)cc1` displayed a melting point of 121 to 125 °C.

The compound `Nc1nccc(-c2ccc([N+](=O)[O-])cc2)n1` yielded a melting point of 217 to 219 °C.

Consider `CC(C)n1ncc2ccc(N)cc21`, for which the melting point fell in the range of 144 to 146 °C. Under `O=C(O)c1noc(-c2ccccc2F)n1` stands 189 to 191 °C. Under `N=C(N)NCCC(=O)O` stands 220 to 224 °C; under `CCn1c(CCl)nc2c(F)cccc21`, 115 to 117 °C; under `CCO/C=C(\C#N)c1nc(C)cs1`, 70 to 72 °C.

`CC(NC(=O)c1ccccc1N)c1ccccc1` (stereo unspecified) showed a melting point of 127 to 129 °C. The result for `O=C(O)c1ccc(Oc2ccc(Cl)cc2Cl)cc1` reads 168 to 170 °C. Compound `O=C(O)c1c2c(nc3ccccc13)C(=Cc1ccccc1)CC2` had a melting point of 279 to 281 °C.

Turning to `Cc1[nH]ccc1C(=O)O`, the melting point lay within 167 to 169 °C. The result for `N#Cc1cccc(N2CCOC2=O)c1` reads 102 to 104 °C. Consider `CN(C)c1cccc(-c2nnc(N)o2)c1`, for which the melting point fell in the range of 175 to 177 °C.

Compound `CCNS(=O)(=O)c1c[nH]c(C(=O)O)c1` showed a melting point of 183 to 185 °C.

For `Cn1nc(Br)c2c(NCCN)ncnc21`, the melting point lay within 120 to 122 °C. The result for `Cc1nsc2ncc(C(=O)O)cc12` reads 179 to 181 °C. Under `CCOc1ccc(NC(=O)c2ccc(NC(=O)CCl)cc2)cc1` stands 253 to 255 °C. The result for `Nc1ccc(N2CCOCC2)c(S(=O)(=O)Nc2cc(Cl)ccc2Cl)c1` reads 66 to 68 °C.

`O=C1CN(C(=O)c2ccc(Cl)nc2)CCN1`: the melting point is 163 to 165 °C. Compound `CN(C)C(=O)Sc1cnc2nccn2c1` showed a melting point of 129 to 131 °C. The result for `CCc1cc(N)nc(C)n1` reads 149 to 151 °C; that for `O=C(O)Cc1cc2c(ccc3ccccc32)o1`, 166 to 168 °C. Under `Clc1ccc(NCc2ccccn2)cc1` stands 87 to 89 °C; under `O=C(O)C=Cc1cc(Cl)cc(Cl)c1`, 130 to 134 °C; under `O=C(O)c1ccc2nnn(O)c2c1`, 229 to 231 °C. Under `Nc1nc2c(F)cc(F)cc2s1` stands 197 to 199 °C. In turn, `Cc1cc(C(=O)O)c(C)n1Cc1ccccc1` had a melting point of 196 to 200 °C.

On to `O=C(O)Cc1csc(N2CCCC2=O)n1`, for which the melting point lay in the range of 118 to 120 °C. The result for `COc1ccccc1Oc1ccc(C(N)=S)cc1` reads 193 to 195 °C; that for `Fc1ccc(CBr)c2ncccc12`, 94 to 96 °C. On to `Cc1noc(C)c1CNC(=O)CCl`, for which the melting point was 79 to 81 °C.

For the origin of these results see a melting point compilation (Tetko et al.).
